Read-outs that look alike come from different tables or passages of the source.
Legend:
[1] = tested on: Human lice, Pediculus humanus; details: in vivo
[2] = tested on: Louse eggs; details: for inhibition of embryo development before eyespot stage (in words): Table 10, Undeveloped; for Number of eggs Half-hatched / Number of eggs Undeveloped: Laurex CS 4.00%, GMS N/SE 2.00%; for Undeveloped % (in brackets, Abbott's correction): corrected; for Undeveloped %: uncorrected; for activity against louse eggs (in words): after correction for hatching failure in the Control Group
[3] = Table 10, H2O vehicle, Laurex CS 4.00% (163 eggs), GMS N/SE 2.00% (176 eggs)
[4] = Table 10, IPA/water vehicle, Laurex CS 4.00% (102 eggs), GMS N/SE 2.00% (145 eggs)
[5] = Table 10, IPA/water vehicle, IPA/H2O mix 40.5

## CCCCCCCCCCCCCCCC[N+](C)(C)C.[Cl-] [Dehyquart ACA, Cetrimonium chloride]
[1]
  Mortality % (Killed): 20 (10) %
  Mortality % Total: 20 (10) %
  Number of eggs: 34
  Number of lice Killed: 2
  Number of lice Moribund: 2

## CCCCCCCCCCCCCCCCCC(=O)OCC(O)CO (stereo not drawn) [GMS N/SE, Glyceryl stearate]
[1]
  Number of lice Moribund: 0
  pediculicidal activity (in words): showed any activity
[2]
  inhibition of embryo development before eyespot stage (in words): activity to inhibit the development of the embryo
[2]; [3]
  Number of eggs Hatched: 135
[2]; Table 10, H2O vehicle
  Number of eggs Half-hatched: 7
  Number of eggs Undeveloped: 27
  Undeveloped % (in brackets, Abbott's correction): 0%
  Undeveloped %: 15.3%
[2]; [4]
  Number of eggs Hatched: 45
[2]; Table 10, IPA/water vehicle
  Number of eggs Half-hatched: 1
  Number of eggs Undeveloped: 93
  Undeveloped % (in brackets, Abbott's correction): 39.7%
[2]; [5]
  Undeveloped %: 64.1%
[2]; Table 10
  activity against louse eggs (in words): activity could be detected

## CCCCCCCCCCCCCCCCCCO [Laurex CS, Cetearyl alcohol]
[1]
  pediculicidal activity (in words): killed all lice and prevented them from laying any eggs
  pediculicidal activity at different time exposures (in words): some activity can be demonstrated from 30 minutes application
[2]
  inhibition of embryo development before eyespot stage (in words): activity to inhibit the development of the embryo
[2]; [3]
  Number of eggs Hatched: 117
[2]; Table 10, H2O vehicle
  Number of eggs Half-hatched: 1
  Number of eggs Undeveloped: 34
  Undeveloped % (in brackets, Abbott's correction): 0%
  Undeveloped %: 20.9%
[2]; [4]
  Number of eggs Hatched: 19
[2]; Table 10, IPA/water vehicle
  Number of eggs Half-hatched: 1
  Number of eggs Undeveloped: 70
  Undeveloped % (in brackets, Abbott's correction): 47.2%
[2]; [5]
  Undeveloped %: 68.6%
[2]; after correction for Control Group, Table 10
  kill of louse eggs: > 50%
[2]; Table 10
  activity against louse eggs (in words): activity could be detected

## Liquid Paraffin [reference compound]
[1]
  Mortality % (Killed): 100 (100) %
  Mortality % Total: 100 (100) %

## Methylparaben & Propylparaben & Ethylparaben [Nipasept]
[1]
  Mortality % (Killed): 20 (15) %
  Mortality % Total: 20 (15) %

## Thymus Vulgaris (Thyme) extract [Thyme Extract]
[1]
  Mortality % (Killed): 21 (5) %
  Mortality % Total: 21 (5) %

## Urtica Dioica (Nettle) extract [Nettle Extract]
[1]
  Mortality % (Killed): 24 (14) %
  Mortality % Total: 24 (14) %

From US20050053680A1, “Pediculicidal compound” (priority 2002, published 2005)
